{"source": "ChEMBL document CHEMBL3886253", "about": "“Imidazolidinones and analogs exhibiting anti-cancer and anti-proliferative activities” (2015)", "key": {"[1]": {"biological_target": "Hepatocyte growth factor receptor (Homo sapiens, UniProt P08581)", "sequence (P08581 whole entry, the tested form may be a part)": "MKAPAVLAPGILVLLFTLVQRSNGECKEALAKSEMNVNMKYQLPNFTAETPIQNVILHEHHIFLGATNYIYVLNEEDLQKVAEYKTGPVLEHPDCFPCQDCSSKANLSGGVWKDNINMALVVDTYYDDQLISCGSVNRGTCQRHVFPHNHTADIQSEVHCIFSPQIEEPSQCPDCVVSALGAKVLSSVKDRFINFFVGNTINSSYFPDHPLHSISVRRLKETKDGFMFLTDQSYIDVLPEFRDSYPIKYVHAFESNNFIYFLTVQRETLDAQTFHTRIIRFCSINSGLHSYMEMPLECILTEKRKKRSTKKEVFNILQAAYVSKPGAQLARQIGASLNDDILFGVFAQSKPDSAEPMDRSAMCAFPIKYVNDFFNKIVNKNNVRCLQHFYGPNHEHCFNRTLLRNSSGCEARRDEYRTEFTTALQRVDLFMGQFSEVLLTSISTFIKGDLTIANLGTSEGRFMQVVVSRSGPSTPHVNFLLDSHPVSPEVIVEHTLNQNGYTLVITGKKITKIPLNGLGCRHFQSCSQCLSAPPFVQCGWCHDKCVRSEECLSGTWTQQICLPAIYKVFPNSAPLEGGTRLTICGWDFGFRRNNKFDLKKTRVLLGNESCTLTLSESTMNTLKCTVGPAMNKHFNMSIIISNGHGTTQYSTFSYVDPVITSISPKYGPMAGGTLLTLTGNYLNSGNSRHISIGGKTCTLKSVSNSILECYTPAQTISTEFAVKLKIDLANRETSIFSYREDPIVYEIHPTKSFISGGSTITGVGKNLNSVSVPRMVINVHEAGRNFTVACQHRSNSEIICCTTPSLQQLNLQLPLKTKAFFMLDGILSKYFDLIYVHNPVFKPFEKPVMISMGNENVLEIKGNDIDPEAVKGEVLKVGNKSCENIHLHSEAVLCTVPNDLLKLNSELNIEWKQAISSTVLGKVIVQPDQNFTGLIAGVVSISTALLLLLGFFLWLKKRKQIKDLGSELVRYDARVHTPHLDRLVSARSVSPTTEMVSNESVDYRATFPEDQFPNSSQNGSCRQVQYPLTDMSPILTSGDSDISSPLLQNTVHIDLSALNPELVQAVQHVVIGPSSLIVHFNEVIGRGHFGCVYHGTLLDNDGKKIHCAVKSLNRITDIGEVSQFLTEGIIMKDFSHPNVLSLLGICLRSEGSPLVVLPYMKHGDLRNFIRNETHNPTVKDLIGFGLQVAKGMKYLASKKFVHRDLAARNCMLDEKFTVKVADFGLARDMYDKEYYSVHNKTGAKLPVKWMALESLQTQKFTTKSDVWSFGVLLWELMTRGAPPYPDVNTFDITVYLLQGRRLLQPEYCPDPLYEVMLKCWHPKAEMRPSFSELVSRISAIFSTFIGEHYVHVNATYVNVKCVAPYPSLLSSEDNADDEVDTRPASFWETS", "test": "(§1) In Vitro Receptor Tyrosine Kinase Assay: These tests measure the ability of compounds to inhibit the enzymatic activity of recombinant human c-Met/HGF receptor and VEGF receptor enzymatic activity. A 1.3-kb cDNA corresponding to the intracellular domain of c-Met or c-Met IC (Genbank accession number NP000236-1 amino acid 1078 to 1337) is cloned into the BamHI/XhoI sites of the pBlueBacHis2A vector (Invitrogen) for the production of a histidine-tagged version of that enzyme. This construct is used to generate recombinant baculovirus using the Bac-N-Blue¿ system according to the manufacturer's instructions (Invitrogen). The c-Met IC protein is expressed in Hi-5 cells (Trichoplusia Ni) upon infection with recombinant baculovirus construct. Briefly, Hi-5 cells grown in suspension and maintained in serum-free medium (Sf900 II supplemented with gentamycin) at a cell density of about 2x10^6 cells/ml are infected with the above-mentioned viruses at a multiplicity of infection (MOI) of 0.2 during 72 hours at 27 C."}, "[2]": {"biological_target": "Vascular endothelial growth factor receptor 2 (Homo sapiens, UniProt P35968)", "sequence (P35968 whole entry)": "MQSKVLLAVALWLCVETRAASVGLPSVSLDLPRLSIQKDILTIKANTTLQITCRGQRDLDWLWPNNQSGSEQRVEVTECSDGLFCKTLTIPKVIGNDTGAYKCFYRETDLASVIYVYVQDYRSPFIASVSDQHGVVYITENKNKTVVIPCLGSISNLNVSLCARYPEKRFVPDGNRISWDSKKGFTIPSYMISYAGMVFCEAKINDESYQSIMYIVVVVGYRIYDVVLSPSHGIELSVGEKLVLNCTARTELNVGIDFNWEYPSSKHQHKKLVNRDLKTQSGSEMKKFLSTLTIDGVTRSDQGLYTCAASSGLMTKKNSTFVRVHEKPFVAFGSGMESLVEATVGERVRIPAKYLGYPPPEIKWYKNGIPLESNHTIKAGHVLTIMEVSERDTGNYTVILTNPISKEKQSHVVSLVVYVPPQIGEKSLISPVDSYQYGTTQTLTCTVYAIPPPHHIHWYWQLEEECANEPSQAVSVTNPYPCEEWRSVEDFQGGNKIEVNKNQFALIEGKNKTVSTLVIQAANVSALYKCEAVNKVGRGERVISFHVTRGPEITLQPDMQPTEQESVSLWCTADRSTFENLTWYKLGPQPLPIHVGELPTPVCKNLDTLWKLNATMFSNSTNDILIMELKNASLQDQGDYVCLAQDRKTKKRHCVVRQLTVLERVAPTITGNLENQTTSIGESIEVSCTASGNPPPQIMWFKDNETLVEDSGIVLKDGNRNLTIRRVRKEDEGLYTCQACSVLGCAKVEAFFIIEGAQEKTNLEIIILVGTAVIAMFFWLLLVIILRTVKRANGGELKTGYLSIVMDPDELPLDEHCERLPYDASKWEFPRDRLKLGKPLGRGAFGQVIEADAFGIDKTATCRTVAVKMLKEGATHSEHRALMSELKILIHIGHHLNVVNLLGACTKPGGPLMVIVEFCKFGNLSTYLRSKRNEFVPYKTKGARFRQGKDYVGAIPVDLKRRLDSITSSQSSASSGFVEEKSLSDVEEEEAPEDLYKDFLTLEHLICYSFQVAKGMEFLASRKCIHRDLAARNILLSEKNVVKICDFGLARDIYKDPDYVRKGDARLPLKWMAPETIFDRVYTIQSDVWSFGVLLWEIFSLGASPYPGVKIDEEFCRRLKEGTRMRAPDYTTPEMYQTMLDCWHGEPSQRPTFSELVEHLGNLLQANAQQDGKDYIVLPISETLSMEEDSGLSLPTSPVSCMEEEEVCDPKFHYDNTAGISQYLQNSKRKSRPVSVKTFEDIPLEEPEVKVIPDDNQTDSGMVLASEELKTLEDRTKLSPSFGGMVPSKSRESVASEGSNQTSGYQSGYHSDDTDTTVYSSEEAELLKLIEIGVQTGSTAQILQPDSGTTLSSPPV", "test": "as §1"}, "[3]": {"biological_target": "Macrophage colony-stimulating factor 1 receptor (Homo sapiens, UniProt P07333)", "sequence (P07333 whole entry)": "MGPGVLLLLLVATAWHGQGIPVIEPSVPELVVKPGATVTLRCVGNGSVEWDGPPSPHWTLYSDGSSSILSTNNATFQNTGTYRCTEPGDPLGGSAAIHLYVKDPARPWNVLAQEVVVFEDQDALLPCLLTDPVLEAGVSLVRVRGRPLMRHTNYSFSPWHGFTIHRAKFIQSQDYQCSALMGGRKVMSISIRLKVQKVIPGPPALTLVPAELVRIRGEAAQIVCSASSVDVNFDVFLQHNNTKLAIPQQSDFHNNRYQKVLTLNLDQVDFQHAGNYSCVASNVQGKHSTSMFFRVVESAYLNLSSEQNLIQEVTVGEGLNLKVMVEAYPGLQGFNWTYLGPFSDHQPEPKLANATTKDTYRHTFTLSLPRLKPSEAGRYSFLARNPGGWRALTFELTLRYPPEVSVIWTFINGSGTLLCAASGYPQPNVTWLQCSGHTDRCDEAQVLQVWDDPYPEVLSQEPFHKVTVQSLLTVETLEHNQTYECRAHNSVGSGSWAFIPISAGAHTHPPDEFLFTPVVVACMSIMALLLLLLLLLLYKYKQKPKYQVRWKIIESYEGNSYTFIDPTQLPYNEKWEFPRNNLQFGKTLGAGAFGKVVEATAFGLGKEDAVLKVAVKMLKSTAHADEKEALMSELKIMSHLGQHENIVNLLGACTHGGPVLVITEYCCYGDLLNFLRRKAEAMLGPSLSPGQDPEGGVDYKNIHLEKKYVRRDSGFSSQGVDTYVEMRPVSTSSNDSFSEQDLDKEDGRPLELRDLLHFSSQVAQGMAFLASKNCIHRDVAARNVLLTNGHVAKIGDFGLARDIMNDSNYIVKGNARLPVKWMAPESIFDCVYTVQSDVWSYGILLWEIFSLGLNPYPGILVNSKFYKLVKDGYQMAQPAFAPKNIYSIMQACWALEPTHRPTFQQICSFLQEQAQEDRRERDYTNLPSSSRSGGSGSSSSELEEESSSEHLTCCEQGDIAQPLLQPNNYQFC", "test": "Enzymatic Assay: Activity of unphosphorylated c-FMS kinase (uFMS, Seq. ID no. 1) was determined by following the production of ADP from the FMS kinase reaction with ATP and poly E4Y as substrates through coupling with the pyruvate kinase/lactate dehydrogenase system (e.g., Schindler et al. Science (2000) 289: 1938-1942). In this assay, the oxidation of NADH (thus the decrease at A340 nm) was continuously monitored spectrophometrically. The reaction mixture (100 µL) contained FMS (purchased from Millipore) (10 nM), polyE4Y (1 mg/mL), MgCl2 (10 mM), pyruvate kinase (4 units), lactate dehydrogenase (0.7 units), phosphoenol pyruvate (1 mM), NADH (0.28 mM) and ATP (500 µM) in 90 mM Tris buffer containing 0.2% octyl-glucoside and 1% DMSO, pH 7.5. The inhibition reaction was started by mixing serial diluted test compound with the above reaction mixture. The absorption at 340 nm was monitored continuously for 4 hours at 30° C. on Synergy 2 plate reader."}}}
{"smiles": "Cn1cc(-c2cc(Oc3ccc(NC(=O)N4CCN(c5ccc(F)cc5)C4=O)nc3)ccn2)cn1", "values": [{"measurement": "IC50", "setting": "[1]", "value": 196, "unit": "nM"}, {"measurement": "IC50", "setting": "[2]", "value": 990, "unit": "nM"}, {"measurement": "IC50", "setting": "[3]", "value": 13, "unit": "nM"}]}
